# How the values were obtained:
# [1] = system: 23 different positive blood culture (PBC) samples comprising seven different species of bacteria; assay: VITEK 2 GN81 automated AST of 0.5 McFarland inocula (present method vs traditional subculture); type: cell-based; conditions: for # I: number of isolates deemed intermediate (I); for # R: number of isolates deemed resistant (R); for # S: number of isolates deemed susceptible (S)
# Description: (§1) Both the present method 1700 and traditional microbial subculturing techniques were used to prepare standardized 0.5 McFarland inocula for AST using Kirby-Bauer disk diffusion (see Table 1) and the automated VITEK2 GN81 AST platform (see Table 2).
# (§2) Two sets of standardized 0.5 McFarland inocula were prepared from 23 different positive blood culture (PBC) samples comprising seven different species of bacteria. The 23 PBC samples included six samples of Escherichia coli (ECo), two samples of Enterobacter cloacae (ECl), three samples of Klebsiella pneumoniae (KPn), four samples of Klebsiella oxytoca (KOx), two samples of Citrobacter freundii (CFr), four samples of Serratia marcescens (SMa), and two samples of Klebsiella aerogenes (KAe).
# (§3) The first set was prepared using the presently disclosed method 1700 (sample preparation time: between 60 minutes and 180 minutes) and the second set was prepared using traditional microbial subculturing techniques (sample preparation time: between 18 hours to 24 hours). The testing was conducted using the automated VITEK®2 GN81 AST platform (see Table 1) and manual Kirby-Bauer disk diffusion (see Table 2).
# [2] = system: 23 different positive blood culture (PBC) samples comprising seven different species of bacteria; assay: Kirby-Bauer disk diffusion AST of 0.5 McFarland inocula (present method vs traditional subculture); type: cell-based; conditions: for # I: number of isolates deemed intermediate (I); for # R: number of isolates deemed resistant (R); for # S: number of isolates deemed susceptible (S)
# Source text: The standardized inoculum 1726 (e.g., the 0.5 McFarland inoculum) can then be used directly for antimicrobial susceptibility testing using manual disk diffusion or diluted further for automated AST platforms. For example, the standardized inoculum 1726 prepared using the method 1700 and system 1702 disclosed herein can be subjected to manual Kirby-Bauer disk diffusion AST or an automated AST platform such as the VITEK®2 platform.
# as §1, §2, §3
# In total, 296 minimum inhibitory concentrations (MICs) from the VITEK®2 GN81 platform and 224 zone sizes on disk diffusion were evaluated.
# [3] = system: KOx harboring the KPC-3 gene; assay: Disk diffusion AST, single isolate with major error; type: cell-based, Klebsiella oxytoca
# Description: as §3
# [4] = inoculum prepared using the present method 1700
Compound,# I [1],# R [1],# S [1],# I [2],# R [2],# S [2],susceptibility category ([3]; control 0.5 McFarland inoculum),zone size ([3]; control 0.5 McFarland inoculum) [mm],"susceptibility category [3, 4]","zone size [3, 4] [mm]"
Trimethoprim-sulfamethoxazole,0,6,11,,,,,,,
Piperacillin-tazobactam,1,3,5,1,3,14,,,,
Amoxicillin-Clavulanic acid,1,6,6,0,7,6,,,,
Gentamicin,1,2,20,1,2,20,,,,
C[C@@H](O)[C@H]1C(=O)N2C(C(=O)O)=C(S[C@@H]3CN[C@H](C(=O)N(C)C)C3)[C@H](C)[C@H]12 [Meropenem],,,,,,,susceptible,23,resistant,19
